pEC50: −log10 of the molar value. Converted amounts (≈) assume the structure as drawn. Read-outs that look alike come from different tables or passages of the source.
Tests used:
[1] = system: Venezuelan equine encephalitis virus (VEEV); test: microbe, parasite or virus in culture; conditions: Vero 76
influenza A(H5N1) [2] = test: microbe, parasite or virus in culture; conditions: H5N1, MDCK
HCMV AD169 = test: HCMV plaque reduction assay, MRC-5 cells, strain AD169; assay type: cell-based, Human cytomegalovirus; conditions: Human betaherpesvirus 5, 144 h; hCMV AD169, MRC5 cells, plaque assay, 6-days duration
RSV [3] = conditions: RSV; SI = CC50/EC50
Yellow fever virus (YFV) [4] = test: microbe, parasite or virus in culture; conditions: Huh-7
West Nile virus (WNV) [5] = conditions: WNV; SI = CC50/EC50
[6] = MRC-5 cytotoxicity assay (MTS) and visual cytotoxicity; conditions: human
SARS-CoV [7] = test: microbe, parasite or virus in culture; conditions: Severe acute respiratory syndrome coronavirus, Vero 76
in vitro [8] = conditions: dog
Zika virus [9] = conditions: Zika; SI = CC50/EC50
Yellow fever virus (YFV) [10] = conditions: YFV; SI = CC50/EC50
enterovirus-68 (EV-68) [11] = test: organism not typed; conditions: RD
in vitro [12] = conditions: African green monkey
in vitro [13] = conditions: African green monkey; remark: listed apart in the source
poliovirus-1 (POV-1) [14] = conditions: for SI: POV-1, SI = CC50/EC50
[15] = rat, 1 µM
dengue virus-2 (DV-2) [16] = conditions: DV-2; SI = CC50/EC50
Influenza B [17] = system: Influenza B
SARS-CoV [18] = conditions: SARS-CoV; SI = CC50/EC50
in vitro [19] = conditions: African green monkey; remark: listed apart in the source
West Nile virus (WNV) [20] = test: microbe, parasite or virus in culture; conditions: Vero 76
Influenza B [21] = test: microbe, parasite or virus in culture; conditions: MDCK
TCRV [22] = test: microbe, parasite or virus in culture; conditions: Mammarenavirus tacaribeense, Vero C1008
in vitro [23] = conditions: African green monkey; remark: listed apart in the source
SARS-CoV-2 [24] = test: microbe, parasite or virus in culture; conditions: Severe acute respiratory syndrome coronavirus 2, Vero 76
[25] = system: Rift Valley fever virus (RVFV); test: microbe, parasite or virus in culture; conditions: Vero 76
influenza A(H1N1) [26] = test: microbe, parasite or virus in culture; conditions: H1N1, MDCK
in vitro [27] = conditions: dog; remark: listed apart in the source
TCRV [28] = conditions: TCRV; SI = CC50/EC50
in vitro [29] = conditions: African green monkey; remark: listed apart in the source
in vitro [30] = conditions: African green monkey; remark: listed apart in the source
in vitro [31] = conditions: Syrian hamster
RSV [32] = test: microbe, parasite or virus in culture; conditions: human respiratory syncytial virus, MA104
[33] = system: Rift Valley fever virus (RVFV); conditions: RVFV; SI = CC50/EC50
poliovirus-1 (POV-1) [34] = test: organism not typed
[35] = system: Japanese encephalitis virus (JEV); conditions: JEV; SI = CC50/EC50
enterovirus-68 (EV-68) [36] = conditions: EV-68; SI = CC50/EC50
in vitro [37] = conditions: African green monkey; remark: listed apart in the source
dengue virus-2 (DV-2) [38] = test: microbe, parasite or virus in culture; conditions: Huh-7
in vitro [39] = conditions: African green monkey; remark: listed apart in the source
adenovirus-5 (Ad5) [40] = test: organism not typed; conditions: A549
SARS-CoV-2 [41] = conditions: SARS-CoV-2; SI = CC50/EC50
in vitro [42] = conditions: African green monkey; remark: listed apart in the source
Zika virus [43] = test: microbe, parasite or virus in culture; conditions: Vero 76
influenza A(H5N1) [44] = system: influenza A(H5N1)
[45] = system: Venezuelan equine encephalitis virus (VEEV); conditions: VEEV; SI = CC50/EC50
in vitro [46] = conditions: dog; remark: listed apart in the source
Powassan virus (POWV) [47] = conditions: POWV; SI = CC50/EC50
[48] = human
influenza A(H1N1) [49] = system: influenza A(H1N1)
Powassan virus (POWV) [50] = test: microbe, parasite or virus in culture; conditions: BHK-21
adenovirus-5 (Ad5) [51] = conditions: Ad5; SI = CC50/EC50
[52] = system: Japanese encephalitis virus (JEV); test: microbe, parasite or virus in culture; conditions: Vero 76
[53] = system: enterovirus-68 (EV-68, US/DY/14-18953); conditions: EV-68; SI = CC50/EC50
in vitro [54] = conditions: human
[55] = system: enterovirus-68 (EV-68, US/DY/14-18953); test: organism not typed; conditions: RD

## Nc1nc2c(ncn2[C@@H]2OC(CO)=CC2O)c(=O)[nH]1 (some centres unmarked) [AB21651]
[1]
  pEC50: < 2.70
Influenza A(H5N1) [2]
  pEC50: 2.89
HCMV AD169
  pEC50: < 4.00
RSV [3]
  SI: 0
Yellow fever virus (YFV) [4]
  pEC50: < 2.70
West Nile virus (WNV) [5]
  SI: 0
[6]
  CC50 at 6 days: > 100 µM
SARS-CoV [7]
  pEC50: < 2.70
In vitro [8]
  CC50: > 2000 µM
Zika virus [9]
  SI: 0
Yellow fever virus (YFV) [10]
  SI: 0
enterovirus-68 (EV-68) [11]
  pEC50: < 2.96
In vitro [12]
  CC50: > 2000 µM
In vitro [13]
  CC50: > 2000 µM
poliovirus-1 (POV-1) [14]
  SI: 0
[15]; 15 min
  Peak area ratio, metabolite formed (AB21649 from AB23039, AB21651 from AB23040): 6.93E−04
[15]; 60 min
  Peak area ratio, metabolite formed (AB21649 from AB23039, AB21651 from AB23040): 7.68E−04
Dengue virus-2 (DV-2) [16]
  SI: 0
Influenza B [17]
  SI: 0
SARS-CoV [18]
  SI: 0
In vitro [19]
  CC50: > 2000 µM
West Nile virus (WNV) [20]
  pEC50: < 2.70
Influenza B [21]
  pEC50: < 2.70
TCRV [22]
  pEC50: < 2.70
In vitro [23]
  CC50: > 2000 µM
SARS-CoV-2 [24]
  pEC50: < 2.70
[25]
  pEC50: < 2.70
Influenza A(H1N1) [26]
  pEC50: 3.36
In vitro [27]
  CC50: > 2000 µM
TCRV [28]
  SI: 0
In vitro [29]
  CC50: > 2000 µM
In vitro [30]
  CC50: > 2000 µM
In vitro [31]
  CC50: > 2000 µM
RSV [32]
  pEC50: < 2.70
[33]
  SI: 0
poliovirus-1 (POV-1) [34]; Vero 76
  pEC50: < 2.70
[35]
  SI: 0
enterovirus-68 (EV-68) [36]
  SI: 0
In vitro [37]
  CC50: > 2000 µM
Dengue virus-2 (DV-2) [38]
  pEC50: < 2.70
In vitro [39]
  CC50: > 2000 µM
adenovirus-5 (Ad5) [40]
  pEC50: < 2.70
SARS-CoV-2 [41]
  SI: 0
In vitro [42]
  CC50: > 2000 µM
Zika virus [43]
  pEC50: < 2.70
Influenza A(H5N1) [44]; Table 11
  antiviral activity against Influenza (H5N1) (in words): exhibits antiviral activity
Influenza A(H5N1) [44]; influenza A(H5N1), SI = CC50/EC50
  SI: >1.5
[45]
  SI: 0
In vitro [46]
  CC50: > 2000 µM
Powassan virus (POWV) [47]
  SI: 0
[48]; 0 min, 1 µM
  Peak area ratio, metabolite formed (AB21649 from AB23039, AB21651 from AB23040): 6.17E−04
[48]; 0 min, 1 μM
  Peak area ratio, metabolite formed (AB21649 from AB23039, AB21651 from AB23040): 7.04E−04
[48]; 15 min, 1 μM
  Peak area ratio, metabolite formed (AB21649 from AB23039, AB21651 from AB23040): 1.03E−03
[48]; 60 min, 1 μM
  Peak area ratio, metabolite formed (AB21649 from AB23039, AB21651 from AB23040): 1.50E−03
Influenza A(H1N1) [49]
  antiviral activity against Influenza (H1N1) (in words): exhibits antiviral activity
Influenza A(H1N1) [49]; H1N1
  SI: >4.5
Powassan virus (POWV) [50]
  pEC50: < 2.70
adenovirus-5 (Ad5) [51]
  SI: 0
[52]
  pEC50: < 2.70

## CC(C)S(=O)(=O)n1c(N)nc2ccc(/C(=N/O)c3ccccc3)cc21 [Enviroxime]
[53]
  SI50 (SI): 46
poliovirus-1 (POV-1) [14]
  SI: 350
poliovirus-1 (POV-1) [14]; Vero 76 cells without virus, positive control
  CC50: 3.3 µg/mL (≈ 9.21 µM)
poliovirus-1 (POV-1) [34]; Vero 76, read-out: EQ50
  EC50: 0.0095 µg/mL
In vitro [54]
  CC50: 5.5 µg/mL (≈ 15.3 µM)
[55]
  EC50: 0.12 µg/mL (≈ 0.335 µM)

From patent US12466849B2, “Anti-viral and anti-tumoral compounds” (YEDA RESEARCH AND DEVELOPMENT CO. LTD, priority 2020, dated 2025)
